Consider 2 compounds from ChEMBL document CHEMBL1127147, “Rational design for cytosolic delivery of nucleoside monphosphates : SATE and DTE as enzyme-labile transient phosphate protecting groups” (Bioorg Med Chem Lett, 1993).

Usually EC50 stands for the concentration giving half of the maximal effect. Read a high EC50 as weaker potency. The term CC50 denotes the concentration at which the toxic effect on the cells reaches its halfway point. The low end stands for harm at low concentration, the high end for better tolerance by the cells.

The subject of assay [1] is CEM-SS. Nature of the assay: Tested for antiviral activity against HIV-1 infected human CEM-SS cell line. It counts as functional, cell-based.
For assay [2], the system named is CEM-TK(-). As to the kind of experiment: Tested for cytotoxicity against human CEM-TK- cell line (deficient in thymidine kinase activity). The format is functional.
Assay [3] has as its system CEM-TK(-). As to the kind of experiment: Tested for antiviral activity against HIV-1 infected human CEM-TK- cell line (deficient in thymidine kinase activity). It counts as functional, cell-based.
Assay [4] has as its system CEM-SS. As to the kind of experiment: Tested for cytotoxicity against human CEM-SS cell line; Percent reduction 40. It counts as functional.
The test system of assay [5] is CEM-SS. As to the kind of experiment: Tested for cytotoxicity against human CEM-SS cell line. It counts as functional.

Turning to `O=c1ccn(C2CCC(COP(=O)(OCCSSCCO)OCCSSCCO)O2)c(=O)[nH]1` (stereo not drawn), the EC50 with CEM-SS [1] came out at 60 µM; in the assay with CEM-TK(-) [3] it was 8 µM. Further, the CC50 is 80 µM in the assay with CEM-TK(-) [2] and over 100 µM in the assay on CEM-SS [4].

`CC(=O)SCCOP(=O)(OCCSC(C)=O)OCC1CCC(n2ccc(=O)[nH]c2=O)O1` (stereo not drawn): the half-maximal effective concentration (EC50) was 5 µM in the assay on CEM-SS [1] and 4 µM with CEM-TK(-) [3]. The values for the CC50 in the assay on CEM-TK(-) [2] and with CEM-SS [5] were 70 µM and 900 µM, respectively.
